Target: Vascular endothelial growth factor receptor 2 (Homo sapiens, UniProt P35968)
Test: Inhibition of VEGFR-2 (unknown origin) at 10 uM after 1 hr by Z'LYTE assay

Sequence of Vascular endothelial growth factor receptor 2 (P35968 whole entry): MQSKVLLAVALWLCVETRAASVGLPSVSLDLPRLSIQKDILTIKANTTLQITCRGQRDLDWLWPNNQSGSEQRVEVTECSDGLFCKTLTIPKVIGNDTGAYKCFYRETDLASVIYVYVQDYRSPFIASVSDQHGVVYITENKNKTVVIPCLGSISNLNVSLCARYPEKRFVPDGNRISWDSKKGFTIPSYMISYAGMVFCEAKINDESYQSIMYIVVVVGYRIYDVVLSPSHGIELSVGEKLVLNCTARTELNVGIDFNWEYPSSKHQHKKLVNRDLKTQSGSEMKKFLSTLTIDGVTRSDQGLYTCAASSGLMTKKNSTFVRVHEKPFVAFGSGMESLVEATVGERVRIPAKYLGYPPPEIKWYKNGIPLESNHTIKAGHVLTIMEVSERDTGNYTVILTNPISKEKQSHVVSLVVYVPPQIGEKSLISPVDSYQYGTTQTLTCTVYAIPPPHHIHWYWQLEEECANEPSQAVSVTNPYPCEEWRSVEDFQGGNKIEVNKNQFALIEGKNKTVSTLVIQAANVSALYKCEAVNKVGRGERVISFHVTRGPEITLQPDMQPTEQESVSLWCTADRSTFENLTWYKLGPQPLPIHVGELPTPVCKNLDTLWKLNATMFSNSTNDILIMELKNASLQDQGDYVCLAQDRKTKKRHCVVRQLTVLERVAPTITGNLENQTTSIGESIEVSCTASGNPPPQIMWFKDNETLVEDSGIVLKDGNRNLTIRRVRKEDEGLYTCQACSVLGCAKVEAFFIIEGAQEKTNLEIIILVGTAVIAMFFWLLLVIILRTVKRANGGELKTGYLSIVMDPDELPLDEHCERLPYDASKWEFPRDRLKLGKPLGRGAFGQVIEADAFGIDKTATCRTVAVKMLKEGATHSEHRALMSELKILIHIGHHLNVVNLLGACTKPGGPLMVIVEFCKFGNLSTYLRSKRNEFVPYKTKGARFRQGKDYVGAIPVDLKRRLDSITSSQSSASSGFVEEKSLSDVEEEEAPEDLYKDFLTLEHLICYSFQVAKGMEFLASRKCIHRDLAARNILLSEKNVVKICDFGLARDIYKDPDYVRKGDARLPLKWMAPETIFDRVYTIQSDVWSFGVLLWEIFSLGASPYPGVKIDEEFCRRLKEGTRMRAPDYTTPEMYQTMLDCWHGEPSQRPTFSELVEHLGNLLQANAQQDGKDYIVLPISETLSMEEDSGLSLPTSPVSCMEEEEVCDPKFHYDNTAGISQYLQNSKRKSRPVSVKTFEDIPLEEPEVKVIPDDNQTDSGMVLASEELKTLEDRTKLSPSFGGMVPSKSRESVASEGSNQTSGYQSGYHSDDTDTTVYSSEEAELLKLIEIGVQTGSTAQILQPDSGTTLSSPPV

inhibition [%] | Structure (SMILES)
63.8 | Cc1c2ccc(Nc3ccnc(Nc4ccc(F)cc4)n3)cc2nn1C
60.8 | Cc1c2ccc(Nc3ccnc(Nc4ccc(S(N)(=O)=O)cc4)n3)cc2nn1C
